Article PMC4613240, “A Series of New Ligustrazine-Triterpenes Derivatives as Anti-Tumor Agents: Design, Synthesis, and Biological Evaluation” (International Journal of Molecular Sciences, 2015)

Legend:
HepG2 cells [1] = experiment: Intracellular free Ca2+ detection (Fluo-3AM, flow cytometry); type: cell-based, human; conditions: 72 h, control MFI 4773
Protocol: A sustained increase in intracellular Ca^2+ concentrations is recognized as a factor for cell death or injury. The level of intracellular free Ca^2+ is examined by the fluorescent dye Fluo-3AM. The Fluo-3 AM is converted to Fluo-3 upon deacetylation within the cells, and Fluo-3 increases green fluorescence upon Ca^2+ binding. […] As the concentration of 4a increased from 5.0 to 6.0 to 7.0 μM, intracellular free Ca^2+ fluorescence increased dramatically (from 4800 to 5612 to 6955). It was in accordance with the tendencies of mitochondrial membrane potential and cell apoptosis.
The level of intracellular free Ca^2+ was examined by the fluorescent dye Fluo-3AM. HepG2 cells (1 × 10^5 cells/mL) in logarithmic growth phase were cultured in 6-well plates for 24 h at 37 °C in incubator with 5% CO2. After exposed to different concentrations of 4a (5, 6, 7 μM) for 72 h, cells were harvested and washed twice with cold PBS, then resuspended in HBSS buffer with 10 μM Fluo-3AM (Fluo-3AM, Shanghai Beyotime Biotech. Co., Ltd., Shanghai, China), and incubated for 30 min at 37 °C in the dark. Detection of intracellular Ca^2+ was carried out by the Flow Cytometer at 488 nm excitation wavelength.

HepG2 cells [2] = experiment: Morphological observation using Giemsa staining; type: cell-based, human; conditions: HepG2, 2, 4, 8 μM for 72 h
Protocol: The morphological changes in HepG2 cells were examined by Giemsa staining. HepG2 cells were seeded in 6-well plates. The cell density was adjusted to 4 × 10^3/well and incubated overnight. After 72 h reaction with certain concentrations of 4a (2, 4, 8 μM), cells were washed with PBS and fixed with cold methanol for 10 min. Methanol was discarded and cells were air-dried. Then fixed cells were stained with 6% Giemsa (Giemsa, Molecular Probes/Invitrogen Life Technologies, Carlsbad, CA, USA) solution for 5 min, washed with water and dried. The cell morphological changes were observed and photographed under a light microscope.

HepG2 cells [3] = experiment: Morphological observation using DAPI staining; type: cell-based, human; conditions: HepG2, 2, 4, 8 μM for 72 h
Protocol: DAPI staining was used to evaluate apoptosis associated morphological changes in this assay. HepG2 cells were seeded in the six well plates at a density of 4 × 10^3 cells/well and incubated overnight. Then the cells were incubated in the presence of 4a at various concentrations (2, 4, 8 μΜ) at 37 °C and 5% CO2 for 72 h. Cells were then washed with PBS, fixed with 4% paraformaldehyde followed by 70% ethanol. Finally, fixed cells were stained with DAPI (DAPI, Molecular Probes/Invitrogen Life Technologies, Carlsbad, CA, USA) at the concentration of 1 mg/mL and incubated for 1 min in dark. The cell morphological changes were observed by fluorescent microscopy and images were captured by digital camera.

[4] = system: Madin-Darby canine kidney cell line (MDCK); experiment: MTT cytotoxicity (nephrotoxicity/selectivity) assay, MDCK; type: cell-based; conditions: Canis lupus familiaris
[5] = system: MCF-7 (human breast cancer); experiment: MTT cytotoxicity assay, MCF-7; type: cell-based; conditions: maximal tested concentration 20.0 μM
Protocol: (§1) The cytotoxicity of ligustrazine-triterpenes derivatives was evaluated on five tumor cell lines (Bel-7402, HepG2, HT-29, Hela, and MCF-7) using the standard MTT assay. In the study, the antineoplastic drug cisplatin (DDP) was selected as the positive control. The MDCK cell line was used to test the toxicity of the ligustrazine-triterpenes derivatives and DDP.
(§2) The cell lines Bel-7402 (human hepatocellular carcinoma), HepG2 (human hepatocellular carcinoma), HT-29 (human colon carcinoma), Hela (human cervical cancer), MCF-7 (human breast cancer) were included in this study. All these cell lines were provided by the Chinese Academy of Medical Sciences & Peking Union Medical College. Cultures were maintained as monolayers in RPMI 1640 supplemented with 10% (v/v) heat inactivated fetal bovine serum and 1% (v/v) enicillin/streptomycin (Thermo Technologies, New York, NY, USA) at 37 °C in a humidified atmosphere with 5% CO2. The ligustrazine derivatives under study were dissolved in DMSO (Sigma, St. Louis, MO, USA) and added at required concentrations to the cell culture. Cells incubated without the preparations served as the control.
(§3) The cytotoxicity of the compounds was evaluated on five cancer cell lines (Bel-7402, HepG2, HT-29, Hela, MCF-7) by the standard MTT assay. In short, exponentially growing cells were seeded into 96-well plates at a density 10^4 cells/mL. The plates were incubated at 37 °C in a humidified 5% CO2 atmosphere. Cells were allowed to adhere to the surface for 24 h and then treated with serial dilutions of the compounds for 72 h. Later, aliquots of [3-(4,5-dimethylthiazol-2-yl)-2,5-diphenyltetrazolium bromide] (MTT) solution (20 μL, 5 mg/mL) were added to each well and the incubation was continued for an additional 4 h. Then the supernatant medium was thrown away. The dark blue formazan crystals formed within the healthy cells were solubilized with DMSO (150 μL) and the absorbance was measured in a plate reader (BIORAD 550 spectrophotometer, Bio-rad Life Science Development Ltd., Beijing, China) at 490 nm. Wells containing no drugs were used as control group. The IC50 values were defined as the concentration of compounds that produced a 50% reduction of surviving cells and calculated using Logit-method. Tumor cell growth inhibitory rate was calculated in the following Equation (1): % inhibition = (1 − Sample group OD/Control group OD) × 100% (1)

[6] = system: Hela (human cervical cancer); experiment: MTT cytotoxicity assay, Hela; type: cell-based; conditions: 72 h, maximal tested concentration 20.0 μM
Protocol: as §1, §2, §3

[7] = system: HT-29 (human colon carcinoma); experiment: MTT cytotoxicity assay, HT-29; type: cell-based; conditions: maximal tested concentration 20.0 μM
Protocol: as §1, §2, §3

**Q.** How did the “intracellular free Ca2+ fluorescence (MFI), Fluo-3AM” value (shortened to “intracellular free Ca2+ fluorescence”) (HepG2 cells [1]; HepG2, 5 μM) turn out when `C=C(C)[C@@H]1CC[C@]2(C(=O)OCc3nc(C)c(C)nc3C)CC[C@]3(C)C(CCC4[C@@]5(C)CC[C@H](O)C(C)(C)C5CC[C@]43C)C12` (stereo partly drawn) [Compound 4a, 3β-Hydroxy-lup-20(29)-ene-28-oic acid-3,5,6-trimethylpyrazin-2-methyl ester] was run?
**A.** The value was 4800.

**Q.** What about the “intracellular free Ca2+ fluorescence” value (HepG2 cells [1]; HepG2, 6 μM) of the same compound?
**A.** The value was 5612.

**Q.** And the “intracellular free Ca2+ fluorescence” value (HepG2 cells [1]; HepG2, 7 μM)?
**A.** Its value is 6955.

**Q.** And the “cell morphology after Giemsa staining” value (HepG2 cells [2])?
**A.** The value was “evident nuclear fragmentation, chromatin condensation in a dose dependent manner”.

**Q.** And the “cell morphology after DAPI staining” value (HepG2 cells [3])?
**A.** The value was “displayed morphological features of apoptosis”.

**Q.** And the inhibition at 10 µM ([4]; MDCK, 10 μM, read-out: inhibition rate against MDCK)?
**A.** Its inhibition at 10 µM is roughly 26.5%.

**Q.** What about the IC50 ([4]; maximal tested concentration 20.0 μM, toxicity to MDCK kidney cells) of the same compound?
**A.** The IC50 was greater than 20 µM.

**Q.** What about the IC50 ([5]; 72 h) of the same compound?
**A.** Its IC50 is 4.23 µM.

**Q.** What about the IC50 ([5]; Homo sapiens, MCF7, 72 h) of the same compound?
**A.** The IC50 was less than 5.23 µM.

**Q.** And the IC50 [6]?
**A.** Its IC50 is 4.34 µM.

**Q.** And the IC50 ([6]; Homo sapiens, HeLa)?
**A.** Its IC50 is less than 5.23 µM.

**Q.** And the IC50 ([7]; 72 h)?
**A.** The IC50 was 5.23 µM.

**Q.** And the IC50 ([7]; Homo sapiens, HT-29, 72 h)?
**A.** The IC50 was less than 5.23 µM.
